According to article PMC9555642 (PLoS ONE, 2022):

Tests used:
hERG = molecular target: T1, hERG (Homo sapiens, UniProt Q12809); assay: Cardiovascular ion channel panel, SyncroPatch 384PE patch clamp; type: cell-based; settings: CHO K1 cell line, room temperature, 6 point cumulative assay
T1 construct: expressed in transfected cells; host or cells: Chinese hamster ovary K1 cell line

COPD HBEC ALI cultures [1] = assay: Whole cigarette smoke (WCS) challenge in ALI, FITC-dextran permeability; type: cell-based, human; settings: 10 μM started after first smoke exposure, 4 exposures in 2 days, all concentrations except the highest (1, 0.5 and 0.2 l/min dilution), one COPD donor, exploratory
Procedure: The paracellular permeability was determined by using fluorescein isothiocyanate labeled 4kD-dextran (Sigma-Aldrich, St. Louis, USA). 18 hours after addition of 0.2 mg FITC-dextran in 200 μL medium to the apical side of the ALI cultures, the fluorescence in the basolateral medium was measured using PHERAstar FSX (excitation 485 nm and emission 520 nm) (BMG LABTECH, Ortenberg, Germany). The time point was chosen for optimal window in the assays as well as practical reasons and has been kept consistent in between different stimulations throughout this work. Data was plotted as fold-change of 0.1% DMSO control.
Whole cigarette smoke (WCS) experiments were performed using the Smoking Robot VC 10® S-TYPE (Vitrocell, Waldkirch, Germany). The Vitrocell smoke robot delivers either WCS or humidified air to the apical surface of the cell layers. Briefly, inserts with fully differentiated HBEC in ALI from one COPD donor were placed in the Vitrocell smoke chamber filled with DMEM medium (Thermo Fisher Scientific) and CS or humidified air was puffed onto the apical surface. ISO Puff Standard was used with each CS exposure consisting of two 3R4F Kentucky research cigarettes (one 35 ml puff every 60 seconds). Cells were exposed to WCS four times during two days with a minimum of two hours elapsed between smoke exposures. […] Permeability was measured 20 hours after the last smoke session.

HDAC7 = molecular target: T2, HDAC7 (Homo sapiens, UniProt Q8WUI4); assay: HDAC enzymatic activity (Eurofins); type: biochemical; settings: Class IIA; ACY-1083 mean of two separate measurements, Ricolinostat and Tubastatin A one measurement
T2 construct: purchased Eurofins Pharma Discovery Services 2610
T2 sequence (Q8WUI4 1-952): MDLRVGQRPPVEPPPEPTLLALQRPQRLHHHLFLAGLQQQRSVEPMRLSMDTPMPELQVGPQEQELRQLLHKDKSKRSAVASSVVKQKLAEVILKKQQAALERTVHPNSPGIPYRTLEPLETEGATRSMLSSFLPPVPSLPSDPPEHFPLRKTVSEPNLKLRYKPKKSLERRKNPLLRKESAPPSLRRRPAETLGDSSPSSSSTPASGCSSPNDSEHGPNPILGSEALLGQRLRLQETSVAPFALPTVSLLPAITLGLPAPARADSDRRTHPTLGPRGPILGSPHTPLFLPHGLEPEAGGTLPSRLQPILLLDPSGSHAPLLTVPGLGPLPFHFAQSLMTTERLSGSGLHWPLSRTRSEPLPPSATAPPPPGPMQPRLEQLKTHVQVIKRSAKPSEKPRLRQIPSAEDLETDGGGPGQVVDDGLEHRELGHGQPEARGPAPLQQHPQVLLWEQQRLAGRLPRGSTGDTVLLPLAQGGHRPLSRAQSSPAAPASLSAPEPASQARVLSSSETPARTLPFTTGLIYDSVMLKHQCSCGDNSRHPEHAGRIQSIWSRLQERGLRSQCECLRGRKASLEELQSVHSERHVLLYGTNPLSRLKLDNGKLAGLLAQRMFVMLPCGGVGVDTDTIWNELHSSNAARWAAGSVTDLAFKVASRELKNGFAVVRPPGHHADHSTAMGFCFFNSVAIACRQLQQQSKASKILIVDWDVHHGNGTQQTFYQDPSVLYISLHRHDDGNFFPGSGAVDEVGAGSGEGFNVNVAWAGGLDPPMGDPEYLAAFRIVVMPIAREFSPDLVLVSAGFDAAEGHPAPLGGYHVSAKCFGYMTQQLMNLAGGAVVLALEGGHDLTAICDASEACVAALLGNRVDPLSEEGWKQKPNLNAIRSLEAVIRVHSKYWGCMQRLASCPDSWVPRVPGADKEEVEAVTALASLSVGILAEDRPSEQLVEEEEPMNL

HDAC5 = molecular target: T3, HDAC5 (Homo sapiens, UniProt Q9UQL6); assay: HDAC enzymatic activity (Eurofins); type: biochemical; settings: Class IIA; ACY-1083 mean of two separate measurements, Ricolinostat and Tubastatin A one measurement
T3 construct: purchased Eurofins Pharma Discovery Services 2494
T3 sequence (Q9UQL6 whole entry): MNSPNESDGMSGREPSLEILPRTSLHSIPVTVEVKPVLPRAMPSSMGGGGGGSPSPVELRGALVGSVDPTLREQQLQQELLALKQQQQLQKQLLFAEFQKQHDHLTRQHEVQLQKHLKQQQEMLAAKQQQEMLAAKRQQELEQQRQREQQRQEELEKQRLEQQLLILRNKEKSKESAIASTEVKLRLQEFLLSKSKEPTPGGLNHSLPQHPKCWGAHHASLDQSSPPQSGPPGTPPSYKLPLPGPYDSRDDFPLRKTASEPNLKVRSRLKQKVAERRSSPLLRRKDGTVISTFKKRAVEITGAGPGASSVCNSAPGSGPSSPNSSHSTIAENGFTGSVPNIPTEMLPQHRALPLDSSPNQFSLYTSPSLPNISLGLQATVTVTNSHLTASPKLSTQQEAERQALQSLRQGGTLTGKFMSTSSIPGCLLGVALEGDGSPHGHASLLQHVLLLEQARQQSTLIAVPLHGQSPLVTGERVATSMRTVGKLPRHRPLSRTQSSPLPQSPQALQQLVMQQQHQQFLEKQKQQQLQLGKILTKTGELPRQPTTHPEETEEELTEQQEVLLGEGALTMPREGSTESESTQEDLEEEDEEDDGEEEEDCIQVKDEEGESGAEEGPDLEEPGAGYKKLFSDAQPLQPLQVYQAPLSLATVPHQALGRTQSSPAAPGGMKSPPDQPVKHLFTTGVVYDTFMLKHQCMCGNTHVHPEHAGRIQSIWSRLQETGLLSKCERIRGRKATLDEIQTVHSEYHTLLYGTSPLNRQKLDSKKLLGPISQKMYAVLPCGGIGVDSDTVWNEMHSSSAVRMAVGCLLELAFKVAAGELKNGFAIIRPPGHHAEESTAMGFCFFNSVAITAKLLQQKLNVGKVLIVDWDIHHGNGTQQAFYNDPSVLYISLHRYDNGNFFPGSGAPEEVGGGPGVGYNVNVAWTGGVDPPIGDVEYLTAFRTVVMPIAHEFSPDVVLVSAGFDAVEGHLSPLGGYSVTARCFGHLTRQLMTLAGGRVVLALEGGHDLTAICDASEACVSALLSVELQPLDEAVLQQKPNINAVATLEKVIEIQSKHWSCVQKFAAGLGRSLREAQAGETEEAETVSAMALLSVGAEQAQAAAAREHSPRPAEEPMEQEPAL

Haemophilus influenzae = assay: Pilot test of bactericidal effect, bacteria in media; type: cell-based; settings: bacteria suspended in media incubated for one hour with ACY-1083, pilot experiment
COPD HBEC ALI cultures [2] = assay: AB/PAS staining and quantification of cellular features from IHC sections, TNF challenge; type: cell-based, human
Procedure: Eight days post-treatment, HBEC ALI-cultures were fixed in 4% paraformaldehyde for fifteen minutes and washed three times in PBS. Dehydration in ethanol and xylene followed by paraffin (Merck, New Jersey, USA) infiltration was done with a short program for biopsies (1 hour 55 minutes) on a Microm STP 120 Spin Tissue Processor (Thermo Fisher Scientific). Cell layers were embedded in paraffin and 4 μm thick sections were made using a Leica RM2165 microtome (Leica, Wetzlar, Germany). Alcian Blue/Periodic Acid-Schiff (AB/PAS) with Haematoxylin staining were performed using standard protocols on a Leica ST5020. After staining, the sections were dehydrated in ethanol and xylene, mounted with Pertex mounting medium (Histolab, Göteborg, Sweden) and scanned with a Aperio Scanscope slide scanner (Leica Biosystems, Buffalo Grove, USA).
IHC images were analyzed in HALO v3.1 (Indica Labs). For all analyses, images were annotated manually to exclude out of focus and damaged areas, and a random forest classifier was applied to intact areas of the sections to detect epithelial areas. All following analyses were done in epithelial areas only. For goblet cell counting, algorithm CytoNuclear 2.0.9 was used to segment cells based on nuclear staining and categorize them as AB/PAS (mucin) positive and negative cells based on cytoplasmic AB staining. Goblet cell counting was represented as the percentage of AB positive cells of total cells.
To measure epithelial thickness, the apical and basal sides of the epithelium in the sections were manually delineated using a pen annotation tool. Distance between paired apical and basal annotations was measured every 10 μm along the epithelium, and recorded in sequence as epithelial thickness.
To measure intraepithelial and intercellular AB staining, algorithm Area Quantification v2.1.7 was used. Two thresholds were applied to capture AB staining: a lower one to detect all AB staining in both goblet cells and intercellular areas, and a higher one to detect the stronger AB staining inside goblet cells only. Intercellular AB area was calculated by subtracting goblet AB staining (higher threshold) from total AB staining (by lower threshold).

T1 sequence (Q12809 whole entry): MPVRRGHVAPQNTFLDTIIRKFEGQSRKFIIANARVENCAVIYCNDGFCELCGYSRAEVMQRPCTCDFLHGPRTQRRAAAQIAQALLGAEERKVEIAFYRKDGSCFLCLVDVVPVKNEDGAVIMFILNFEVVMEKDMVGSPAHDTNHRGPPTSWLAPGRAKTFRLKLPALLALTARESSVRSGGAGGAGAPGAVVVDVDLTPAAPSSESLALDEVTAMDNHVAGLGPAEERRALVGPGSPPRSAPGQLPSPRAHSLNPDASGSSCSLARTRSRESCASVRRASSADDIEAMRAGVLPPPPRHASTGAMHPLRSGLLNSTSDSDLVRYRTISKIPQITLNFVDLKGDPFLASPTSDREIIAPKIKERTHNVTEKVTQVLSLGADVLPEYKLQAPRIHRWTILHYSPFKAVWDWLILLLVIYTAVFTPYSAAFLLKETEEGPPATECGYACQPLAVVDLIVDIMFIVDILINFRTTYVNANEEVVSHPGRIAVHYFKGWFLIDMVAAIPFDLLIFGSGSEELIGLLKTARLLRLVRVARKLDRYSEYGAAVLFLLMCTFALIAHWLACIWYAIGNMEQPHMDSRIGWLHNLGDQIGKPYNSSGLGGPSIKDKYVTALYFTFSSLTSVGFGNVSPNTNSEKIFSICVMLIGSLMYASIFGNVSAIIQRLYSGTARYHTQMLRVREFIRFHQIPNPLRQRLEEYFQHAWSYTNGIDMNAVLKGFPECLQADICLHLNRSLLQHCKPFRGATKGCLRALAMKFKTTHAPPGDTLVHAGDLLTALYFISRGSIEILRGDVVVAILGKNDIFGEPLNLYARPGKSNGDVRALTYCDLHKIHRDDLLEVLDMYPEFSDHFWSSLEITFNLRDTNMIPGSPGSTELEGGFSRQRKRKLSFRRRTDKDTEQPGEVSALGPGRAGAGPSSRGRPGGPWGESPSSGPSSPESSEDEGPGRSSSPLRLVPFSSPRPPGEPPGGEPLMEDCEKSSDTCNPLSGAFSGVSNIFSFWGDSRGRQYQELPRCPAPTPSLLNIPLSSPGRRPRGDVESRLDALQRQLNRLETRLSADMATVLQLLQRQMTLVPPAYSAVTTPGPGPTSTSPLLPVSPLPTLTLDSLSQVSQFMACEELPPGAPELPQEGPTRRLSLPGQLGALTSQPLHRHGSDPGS

Substance: ACY-1083
- activity on hERG (hERG): > 30 µM
- paracellular permeability after WCS challenge (COPD HBEC ALI cultures [1]): decrease permeability
- IC50 (HDAC7): 6.51 µM
- IC50 (HDAC5): 4.17 µM
- bactericidal effect (bacterial counts) (Haemophilus influenzae): no effect on bacterial counts
- intraepithelial and intercellular AB area (COPD HBEC ALI cultures [2]; TNF 20 ng/ml + ACY-1083, p<0.0001): reduced to the no-TNF level
- percentage of goblet cells (COPD HBEC ALI cultures [2]; TNF 20 ng/ml + ACY-1083, vs no-TNF DMSO control or TNF DMSO culture): increased but did not differ significantly
- epithelial thickness variation (variance in height) (COPD HBEC ALI cultures [2]; TNF-challenged wells, four donors, p<0.001): smaller
- goblet cell percentage (COPD HBEC ALI cultures [2]; only ACY-1083 vs no-TNF DMSO): No difference
